Reference: EPA's ToxValDB 9.5 (doi:10.2903/j.efsa.2007.110r)
Values after ≈ are worked out from the molar mass of the structure shown.

What was measured:
Oncorhynchus mykiss = conditions: acute; duration: 96 hours; mortality
Canidae = conditions: subchronic; duration: 90 days; oral; Dog Other; organ weight
Daphnia magna = conditions: chronic/long-term; duration: 21 days; reproduction
Pimephales promelas = conditions: chronic/long-term; duration: 28 days; growth
Apis mellifera = conditions: acute; duration: 48 hours; oral; unspecified; mortality
Colinus virginianus = conditions: acute; oral; diet; mortality

## N#Cc1c[nH]cc1-c1cccc2c1OC(F)(F)O2 [Fludioxonil]
Oncorhynchus mykiss
  LC50: 0.23 µg/mL (≈ 0.927 µM)
Canidae
  NOAEL: 58.5 mg/kg-day
Daphnia magna
  NOEC: 0.005 mg/L
Tagia sp.; acute, mortality
  LC50: > 1000 mg/kg
Tagia sp.; chronic/long-term
  NOEC: 20 mg/kg
Pimephales promelas
  NOEC: 0.039 mg/L
Bird; acute, oral, unspecified, mortality
  LD50: ≥ 2000 mg/kg
Bird; reproductive
  NOEC: 11.1 mg/kg-day
Rattus norvegicus; acute, oral, mortality
  LD50: > 5000 mg/kg
Rattus norvegicus; chronic, duration: 2 years, oral, diet, organ weight
  NOAEL: 37 mg/kg-day
Rattus norvegicus; reproduction developmental, reproduction
  NOAEL: 212 mg/kg-day
Apis mellifera
  LD50: > 100 µg/piece
Colinus virginianus
  LC50: > 833 mg/kg-day
